pIC50: −log10 of the molar value. Structures can show the parent of a compound that is named as a salt. Where two headings read alike, the source gives them in different places.
Key:
[1] = target: T1, SARS-CoV-2 PLpro (Severe acute respiratory syndrome coronavirus 2, UniProt P0DTD1); assay: biochemical
T1 construct: containing 60 nM papain-like protease

[2] = system: human Hep G2 cells (ATCC HB-8065); assay: Cytotoxicity in Hep G2 cells (CellTiter-Glo); format: cell-based
[3] = 60 nM papain-like protease, 50 μM Z-RLRGG-AMC, pH 7.5, 37° C., read-out: SARS-CoV-2 PLpro IC50
[4] = Hep G2 cells, 100 μM test article, 24-hour exposure

| SMILES | pIC50 [1, 3] | % Cell Viability [2, 4] [%] | pIC50 [1] | % Cell Viability ([2]; human, 24 h, 100 μM) [%] |
| --- | --- | --- | --- | --- |
| Cc1ccc(N2CCN(C)CC2)cc1C(=O)N[C@H](C)c1cccc(-c2cnn(C)c2)c1 [Example 53, 2-Methyl-5-(4-methylpiperazin-1-yl)-N-[(1R)-1-[3-(1-methylpyrazol-4-yl)phenyl]ethyl]benzamide] | > 5.70 | 82.4 | – | – |
| COCCNC(=O)c1cccc(-c2cccc([C@@H](C)NC(=O)c3cc(N4CCN(C)CC4)ccc3C)c2)c1 [Example 87, N-[(1R)-1-[3-[3-(2-Methoxyethylcarbamoyl)phenyl]phenyl]ethyl]-2-methyl-5-(4-methylpiperazin-1-yl)benzamide] | > 5.70 | 74.6 | – | – |
| Cc1ccc(N2CCN(C)CC2)cc1C(=O)N[C@H](C)c1cccc(C(=O)N(C)C)c1 [Example 311, N-[(1R)-1-[3-(Dimethylcarbamoyl)phenyl]ethyl]-2-methyl-5-(4-methylpiperazin-1-yl)benzamide] | > 4.70 | 130.7 | – | – |
| Cc1ccc(N2CCN(C)CC2)cc1C(=O)N[C@H](C)c1cccc(N2CC(CO)OC2=O)c1 (stereo partly drawn) [Example 107, N-[(1R)-1-[3-[5-(Hydroxymethyl)-2-oxo-oxazolidin-3-yl]phenyl]ethyl]-2-methyl-5-(4-methylpiperazin-1-yl)benzamide] | > 5.30 | 100.7 | – | – |
| COc1ccc([C@@H](C)NC(=O)c2cc(N3CCN(C)CC3)ccc2C)cc1O [Example 291, N-[(1R)-1-(3-Hydroxy-4-methoxy-phenyl)ethyl]-2-methyl-5-(4-methylpiperazin-1-yl)benzamide] | > 5.30 | 97.4 | – | – |
| Cc1ccc(-c2ccnc(N3CCNCC3)c2)cc1C(=O)N[C@H](C)c1cccc2ccccc12 [Example 140, 2-Methyl-N-[(1R)-1-(1-naphthyl)ethyl]-5-(2-piperazin-1-yl-4-pyridyl)benzamide] | > 5.00 | 0.8 | – | – |
| COc1cc(-c2cn(C)nc2C)cc([C@@H](C)NC(=O)c2cc(N3CC4CN(C)CC4C3)ccc2C)c1 (stereo partly drawn) [Example 254, N-[(1R)-1-[3-(1,3-Dimethylpyrazol-4-yl)-5-methoxy-phenyl]ethyl]-2-methyl-5-(2-methyl-1,3,3a,4,6,6a-hexahydropyrrolo[3,4-c]pyrrol-5-yl)benzamide] | > 5.70 | 57.0 | – | – |
| COc1ccc([C@@H](C)NC(=O)c2cc(N3CCN(C)CC3)ccc2C)cc1-c1ccc(=O)n(C)c1 [Example 210, N-[(1R)-1-[4-Methoxy-3-(1-methyl-6-oxo-3-pyridyl)phenyl]ethyl]-2-methyl-5-(4-methylpiperazin-1-yl)benzamide] | > 5.30 | 64.0 | – | – |
| Cc1ccc(N2CCN(C)CC2)cc1C(=O)N[C@H](C)c1ccc(Br)cc1 [Example 24, N-[(1R)-1-(4-Bromophenyl)ethyl]-2-methyl-5-(4-methylpiperazin-1-yl)benzamide] | > 5.00 | 70.7 | – | – |
| Cc1ccc(N2CCN(C)CC2)cc1C(=O)N[C@H](C)c1cccc(N2CCN(CCC(=O)O)CC2)c1 [Example 166, 3-[4-[3-[(1R)-1-[[2-Methyl-5-(4-methylpiperazin-1-yl)benzoyl]amino]ethyl]phenyl]piper-azin-1-yl]propanoic acid] | > 5.00 | 100.9 | – | – |
| Cc1ccc(N2CCN(C)CC2)cc1C(=O)N[C@H](C)c1cc(-c2ccccc2)cs1 [Example 231, 2-Methyl-5-(4-methylpiperazin-1-yl)-N-[(1R)-1-(4-phenyl-2-thienyl)ethyl]benzamide] | > 5.70 | 1.6 | – | – |
| COc1cc(-c2cnn(C)c2)cc([C@@H](C)NC(=O)c2cc(N3CCCN(C)CC3)ccc2C)c1 [Example 247, N-[(1R)-1-[3-Methoxy-5-(1-methylpyrazol-4-yl)phenyl]ethyl]-2-methyl-5-(4-methyl-1,4-diazepan-1-yl)benzamide] | > 5.70 | 56.7 | – | – |
| Cc1ccc(N2CCN(C)CC2)cc1C(=O)N[C@H](C)c1cccc(-c2ccc(=O)[nH]c2)c1 [Example 66, 2-Methyl-5-(4-methylpiperazin-1-yl)-N-[(1R)-1-[3-(6-oxo-1,6-dihydropyridin-3-yl)phenyl]ethyl]benzamide] | > 5.70 | 100.8 | – | – |
| COc1ccc([C@@H](C)NC(=O)c2cc(N3CCN(CCO)CC3)ccc2C)cc1OC [Example 32, N-[(1R)-1-(3,4-Dimethoxyphenyl)ethyl]-5-[4-(2-hydroxyethyl)piperazin-1-yl]-2-methyl-benzamide] | > 5.30 | 103.5 | – | – |
| COc1cc(OC)cc([C@@H](C)NC(=O)c2cc(N3CCN(C)CC3)ccc2C)c1 [Example 31, N-[(1R)-1-(3,5-Dimethoxyphenyl)ethyl]-2-methyl-5-(4-methylpiperazin-1-yl)benzamide] | > 5.30 | 90.6 | – | – |
| COc1cc(-c2cn(C)nc2C)cc([C@@H](C)NC(=O)c2cc(N3CCNC4(CC4)C3)ccc2C)c1 [Example 267, 5-(4,7-Diazaspiro[2.5]octan-7-yl)-N-[(1R)-1-[3-(1,3-dimethylpyrazol-4-yl)-5-methoxy-phenyl]ethyl]-2-methyl-benzamide] | > 5.70 | 81.0 | – | – |

| SMILES | pIC50 [1, 3] | % Cell Viability [2, 4] [%] | pIC50 [1] | % Cell Viability ([2]; human, 24 h, 100 μM) [%] |
| --- | --- | --- | --- | --- |
| Cc1ccc(N2CCN(C)CC2)cc1C(=O)N[C@H](C)c1cncc(-c2cnn(C)c2)c1 [Example 224, 2-Methyl-5-(4-methylpiperazin-1-yl)-N-[(1R)-1-[5-(1-methylpyrazol-4-yl)-3-pyridyl]ethyl]benzamide] | > 5.30 | 105.0 | – | – |
| COc1ccc([C@@H](C)NC(=O)c2cc(N3C[C@H]4C[C@@H]3CN4C)ccc2C)cc1-c1csc(C(=O)N(C)C)c1 [Example 286, 4-[2-Methoxy-5-[(1R)-1-[[2-methyl-5-[(1R,4R)-5-methyl-2,5-diazabicyclo[2.2.1]heptan-2-yl]benzoyl]amino]ethyl]phenyl]-N,N-dimethyl-thiophene-2-carboxamide] | > 5.70 | 50.3 | – | – |
| COc1ccc(Br)cc1[C@@H](C)NC(=O)c1cc(N2CCN(C)CC2)ccc1C [Example 195, N-[(1R)-1-(5-Bromo-2-methoxy-phenyl)ethyl]-2-methyl-5-(4-methylpiperazin-1-yl)benzamide] | > 5.70 | 41.5 | – | – |
| COc1ccc([C@@H](C)NC(=O)c2cc(N3CCN(C)CC3)ccc2C)cc1-c1ccsc1 [Example 206, N-[(1R)-1-[4-Methoxy-3-(3-thienyl)phenyl]ethyl]-2-methyl-5-(4-methylpiperazin-1-yl)benzamide] | > 5.70 | 0.8 | – | – |
| Cc1ccc(N2CCN(C)CC2)cc1C(=O)N[C@H](C)c1ccc2c(c1)OCCO2 [Example 182, N-[(1R)-1-(2,3-Dihydro-1,4-benzodioxin-6-yl)ethyl]-2-methyl-5-(4-methylpiperazin-1-yl)benzamide] | > 5.30 | 104.8 | – | – |
| Cc1ccc(N2CC3(CNC3)C2)cc1C(=O)N[C@H](C)c1cccc2ccccc12 [Example 17, 5-(2,6-Diazaspiro[3.3]heptan-2-yl)-2-methyl-N-[(1R)-1-(1-naphthyl)ethyl]benzamide] | > 5.30 | 34.7 | – | – |
| Cc1ccc(N2CCN(C)CC2)cc1C(=O)N[C@H](C)c1cccc(-c2cccc(=O)[nH]2)c1 [Example 76, 2-Methyl-5-(4-methylpiperazin-1-yl)-N-[(1R)-1-[3-(6-oxo-1H-pyridin-2-yl)phenyl]ethyl]benzamide] | > 5.70 | 81.2 | – | – |
| Cc1ccc(N2CCN(C)CC2)cc1C(=O)N[C@H](C)c1cccc(-c2ccc(Cl)cc2)c1 [Example 55, N-[(1R)-1-[3-(4-Chlorophenyl)phenyl]ethyl]-2-methyl-5-(4-methylpiperazin-1-yl)benzamide] | > 5.70 | 1.0 | – | – |
| CNC(=O)CCc1cccc([C@@H](C)NC(=O)c2cc(N3CCN(C)CC3)ccc2C)c1 [Example 85, 2-Methyl-N-[(1R)-1-[3-[3-(methylamino)-3-oxo-propyl]phenyl]ethyl]-5-(4-methylpiperazin-1-yl)benzamide] | > 5.00 | 85.1 | – | – |
| Cc1ccc(C2=CCNCC2)c(C)c1C(=O)N[C@H](C)c1cccc2ccccc12 [Example 155, 2,6-Dimethyl-N-[(1R)-1-(1-naphthyl)ethyl]-3-(1,2,3,6-tetrahydropyridin-4-yl)benzamide] | – | – | > 5.70 | 0.6 |
| Cc1ccc(N2CCN(C)CC2)cc1C(=O)N[C@H](C)c1cccc(-c2ccc(C(=O)O)cc2)c1 [Example 41] | > 5.30 | 110.1 | – | – |
| Cc1ccc(N2CCN(C)CC2)cc1C(=O)N[C@H](C)c1cccc(-c2cccc(CCO)c2)c1 [Example 44, N-[(1R)-1-[3-[3-(2-Hydroxyethyl)phenyl]phenyl]ethyl]-2-methyl-5-(4-methylpiperazin-1-yl)benzamide] | > 5.70 | 61.0 | – | – |
| C[C@@H](NC(=O)c1cc(C2=CCN(C)CC2)ccc1Cl)c1cccc2ccccc12 [Example 144, 2-Chloro-5-(1-methyl-3,6-dihydro-2H-pyridin-4-yl)-N-[(1R)-1-(1-naphthyl)ethyl]benzamide] | – | – | > 5.00 | 1.6 |
| COc1ccc([C@@H](C)NC(=O)c2cc(N3CCN(C)CC3)ccc2C)cc1-c1cn[nH]c1 [Example 214, N-[(1R)-1-[4-Methoxy-3-(1H-pyrazol-4-yl)phenyl]ethyl]-2-methyl-5-(4-methylpiperazin-1-yl)benzamide] | > 5.70 | 101.2 | – | – |
| C[C@@H](NC(=O)c1cccc(N2CCN(C)CC2)c1)c1cccc2ccccc12 [Example 2, 3-(4-Methylpiperazin-1-yl)-N-[(1R)-1-(1-naphthyl)ethyl]benzamide] | > 5.70 | 20.3 | – | – |
| Cc1ccc(N2CCN(C)CC2)cc1C(=O)N[C@H](C)c1cccc(-c2cccc(CN(C)C)c2)c1 [Example 68, N-[(1R)-1-[3-[3-[(Dimethylamino)methyl]phenyl]phenyl]ethyl]-2-methyl-5-(4-methylpiperazin-1-yl)benzamide Dihydrochloride Salt] | > 5.70 | 48.9 | – | – |

Reference: patent US20240383852A1, “ANTI-VIRAL COMPOUNDS” (INFEX Therapeutics Limited, priority 2021, published 2024)
